Test results from patent US10670616B2, “Microchip for assay of blood properties, and device for assay of blood properties” (FUJIMORI KOGYO CO., LTD., priority 2014, dated 2020).

Legend:
[1] = tested on: thrombus formation in blood; test: Microchip pressure analysis, first channel, collagen + tissue thromboplastin, 8 μl/min (Example 4); assay type: cell-based; details: for integrated values of the pressures measured for 10 minutes, first channel: 8 μL/min
Procedure: (§1) A microchip having the same shape as in Examples 1 to 3 was prepared, and, in the second substrate 1b, a solution prepared by mixing 3 mg/ml collagen solution and 0.4 mg/ml tissue thromboplastin solution at a ratio of 1:1 was applied to the positions corresponding to the first reaction section 102 and the second reaction section 112 such that each applied area has a size of 6 mm×6 mm. The microchip prepared was used in the following experiment.
(§2) Blood was collected using a blood collection tube containing 3.2% sodium citrate, manufactured by Terumo Corporation. To the collected blood, 50 μg/ml (final concentration) CTI and 12 mM (final concentration) calcium chloride were added, and the resulting blood was used for perfusion of the first channel at a flow rate of 8 μl/min. (initial wall shear rate, about 660 s^−1) and the second channel at a flow rate of 24 μl/min. (initial wall shear rate, about 2000 s^−1) for 10 minutes while pressure analysis was carried out.
(§3) The same experiment as in Example 4-1 was carried out using (1) blood prepared by 2-fold dilution of the citrate blood with physiological saline; (2) blood prepared by adding a 0.5 U vWF (von Willebrand factor) formulation (CSL-Behring) to the 2-fold diluted blood of (1); (3) blood prepared by adding a 0.5 U PCC formulation (CSL-Behring) to the 2-fold diluted blood of (1); (4) blood prepared by adding 1 U heparin; or (5) blood prepared by adding 3 μg/ml Abciximab (Eli Lilly).
(§4) The integrated values of the pressures measured for 10 minutes, and the ratios between the first channel and the second channel are shown in the following Table 1.

blood coagulation [2] = test: ROTEM analysis of blood coagulation in the absence of blood flow (Comparative Example 1); assay type: cell-based; details: 12 mM calcium chloride, 50 μg/ml CTI and 1 μg/ml Arixtra
Procedure: Blood was collected using a blood collection tube containing 3.2% sodium citrate, manufactured by Terumo Corporation. To the collected blood, 12 mM calcium chloride; 12 mM calcium chloride and 50 μg/ml CTI; or 12 mM calcium chloride, 50 μg/ml CTI, and 1 μg/ml Arixtra (synthetic pentasaccharide, GlaxoSmithKline K.K.); was/were added, and each resulting blood was analyzed by ROTEM (Tem International GmbH).

blood coagulation [3] = test: ROTEM analysis of canine blood coagulation in the absence of blood flow (Comparative Example 2); assay type: cell-based; details: 0.5 U/ml with 50 μg/ml CTI and 12 mM calcium chloride
Procedure: Canine blood was anticoagulated with 3.2% sodium citrate. Subsequently, 12 mM calcium chloride; 50 μg/ml (final concentration) CTI and 12 mM (final concentration) calcium chloride; or 0.5 U/ml (final concentration) danaparoid sodium, 50 μg/ml CTI, and 12 mM (final concentration) calcium chloride; was/were added to the blood, and blood coagulation in the absence of blood flow was analyzed by ROTEM (Tem International GmbH).

[4] = tested on: white thrombi in the presence of blood flow; test: Microchip pressure analysis with canine blood (Examples 5, 6); assay type: cell-based; details: 0.5 U danaparoid sodium, 24 and 8 μl/min, 10 minutes
Procedure: Canine blood was anticoagulated with 3.2% sodium citrate. Subsequently, 50 μg/ml (final concentration) CTI and 12 mM (final concentration) calcium chloride were added to the blood, and the resulting blood was used for perfusion of the first channel at a flow rate of 24 μl/min. and the second channel at a flow rate of 8 μl/min. for 10 minutes while pressure analysis was carried out.
An experiment was carried out in the same manner as in Example 5 except that 0.5 U danaparoid sodium was added to the dog sodium citrate blood.

[5] = tested on: thrombus formation in blood; test: Microchip pressure analysis, second channel, collagen + tissue thromboplastin, 24 μl/min (Example 4); assay type: cell-based; details: for integrated values of the pressures measured for 10 minutes, second channel: 24 μL/min
Procedure: as §1, §2, §3, §4

[6] = tested on: thrombus formation in blood; test: Microchip pressure analysis, first channel, collagen + 0.4 mg/ml tissue thromboplastin, 8 μl/min (Examples 9, 10); assay type: cell-based; details: for areas under pressure, first channel: 8 μL/min
Procedure: (§5) The same microchip as in Examples 1 to 3 was used, except that, in the second substrate 1b, a solution prepared by mixing 3 mg/ml collagen and 0.4 mg/ml tissue thromboplastin solution at a ratio of 1:1 and a solution prepared by mixing 3 mg/ml collagen and 0.2 mg/ml tissue thromboplastin solution at a ratio of 1:1 were applied to the positions corresponding to the first reaction section 102 and the second reaction section 112, respectively, such that each applied area has a size of 6 mm×6 mm. The microchip prepared was used in the following experiment.
as §2, with “μl/min.” for “μl/min. (initial wall shear rate, about 660 s^−1)”, “μl/min.” for “μl/min. (initial wall shear rate, about 2000 s^−1)”
(§6) The same experiment as in Example 9 was carried out except that blood prepared by 2-fold dilution with physiological saline (Otsuka Pharmaceutical Co., Ltd.), blood prepared by 2-fold dilution with physiological saline+addition of 0.5 U/ml vWF (CSL-Behring), blood prepared by 2-fold dilution+addition of 0.5 U/ml PCC (CSL-Behring), blood prepared by addition of 1 U/ml heparin, or blood prepared by addition of 2 μg/ml abciximab, was used.

[7] = tested on: thrombus formation in blood; test: Microchip pressure analysis, second channel, collagen + 0.2 mg/ml tissue thromboplastin, 24 μl/min (Examples 9, 10); assay type: cell-based; details: for areas under pressure, second channel: 24 μL/min
Procedure: as §5
as §2, with “μl/min.” for “μl/min. (initial wall shear rate, about 660 s^−1)”, “μl/min.” for “μl/min. (initial wall shear rate, about 2000 s^−1)”
as §6

[8] = tested on: thrombus formation (fibrin and platelets) in blood; test: Microchip pressure analysis, first channel coated with collagen and tissue thromboplastin, recalcified citrate blood + CTI (Examples 1, 2); assay type: cell-based, human
Procedure: (§7) Two transparent substrates, that is, the first substrate 1a shown in FIG. 1(A) and the second substrate 1b shown in FIG. 1(B) (injection-molded products manufactured by Richell Corporation), were prepared. In the first substrate 1a, each of the channels 101 and 111 has a length of 20 mm, depth of 40 μm, and width of 2 mm, and each of the waste liquid storage sections has a length of 30 mm, depth of 1.3 mm, and width of 8.5 mm.
(§8) In the substrate 1a, 25 dividing walls each having a height of 40 μm, width of 40 μm, and length of 1.5 mm were arranged at equal intervals at positions corresponding to the first reaction section and the second reaction section of the first channel and the second channel, to provide channel dividing walls 109 and 119, respectively.
(§9) In the second substrate 1b, the holes corresponding to the inlets 104 and 114 were provided as penetrating holes each having an inner diameter of 2 mm and a circular cross-sectional shape. On the other hand, the holes corresponding to the air holes 105 and 115 were provided as penetrating holes each having an inner diameter of 1 mm and a circular cross-sectional shape. […]
(§10) Pumps 107 and 117 were connected to the reservoirs 106 and 116 through tubes, and the pressures applied to the pumps were measured using pressure sensors 108 and 118.

[9] = tested on: platelet-specific thrombus formation in blood; test: Microchip pressure analysis, second channel coated with only collagen, hirudin-treated blood (Examples 1, 2); assay type: cell-based, human
Procedure: as §7, §8, §9, §10

[10] = undiluted blood, heparin 1 U/ml or abciximab 3 μg/ml, control 409.3
[11] = undiluted blood, heparin 1 U/ml or abciximab 3 μg/ml, control 482
[12] = undiluted blood, 1 U/ml heparin or 2 μg/ml abciximab, cont 393.8
[13] = undiluted blood, 1 U/ml heparin or 2 μg/ml abciximab, cont 438.2

CO[C@H]1O[C@H](COS(=O)(=O)O)[C@@H](O[C@@H]2O[C@@H](C(=O)O)[C@@H](O[C@H]3O[C@H](COS(=O)(=O)O)[C@@H](O[C@@H]4O[C@H](C(=O)O)[C@@H](O[C@H]5O[C@H](COS(=O)(=O)O)[C@@H](O)[C@H](O)[C@H]5NS(=O)(=O)O)[C@H](O)[C@H]4O)[C@H](OS(=O)(=O)O)[C@H]3NS(=O)(=O)O)[C@H](O)[C@H]2OS(=O)(=O)O)[C@H](O)[C@H]1NS(=O)(=O)O [Arixtra]
change in the pressure waveform ([1]; Example 4-1 conditions, further addition of 0.5 μg/ml to the blood): no remarkable change in the pressure waveform | blood coagulation in the absence of blood flow (blood coagulation [2]): strongly suppresses blood coagulation

danaparoid sodium
blood coagulation in the absence of blood flow (blood coagulation [3]): remarkable delay of blood coagulation | white thrombi in the presence of blood flow [4]: hardly suppresses white thrombi

heparin [reference compound]
integrated values of the pressures measured for 10 minutes, first channel [1, 10]: 127.3 | integrated values of the pressures measured for 10 minutes, second channel [5, 11]: 328.4 | areas under pressure, first channel [6, 12]: 12 | thrombus formation in the first channel ([6]; Examples 9 and 10): more strongly suppressed thrombus formation in the first channel | areas under pressure, second channel [7, 13]: 198

vWF: vWF (von Willebrand factor) formulation (CSL-Behring)
integrated values of the pressures measured for 10 minutes, first channel ([1]; 50% dilution of citrate blood with physiological saline + 0.5 U/ml factor, 50% dilution alone 203.9): 171.2 | integrated values of the pressures measured for 10 minutes, second channel ([5]; 50% dilution of citrate blood with physiological saline + 0.5 U/ml factor, 50% dilution alone 248.2): 381.1 | thrombi in the second channel ([5]; Example 4-2, 24 μl/min): remarkable recovery of thrombi in the second channel | areas under pressure, first channel ([6]; 50% dilution with physiological saline + 0.5 U/ml factor, 50% dil alone 195.8): 297.9 | areas under pressure, second channel ([7]; 50% dilution with physiological saline + 0.5 U/ml factor, 50% dil alone 110.2): 282.8

B1: abciximab (antibody, chains of the INN, looked up, V domains shown)
VH: EVQLQQSGTVLARPGASVKMSCEASGYTFTNYWMHWVKQRPGQGLEWIGAIYPGNSDTSYIQKFKGKAKLTAVTSTTSVYMELSSLTNEDSAVYYCTLYDGYYVFAYWGQGTLVTVSA
VL: EIVLTQSPVTLSVTPGDSVSLSCRASRDISNNLHWFQQTSHESPRLLIKYASQSMSGIPSRFSGSGSGTDFTLSINSVETEDFGMYFCQQTNSWPYTFGGGTKLEIK
modifications: Fab
thrombus formation in the first channel ([8]; Examples 1 and 2): suppressed | integrated values of the areas below 60 kPa, first channel ([8]; citrate blood + 12 mM calcium chloride + 50 μg/ml CTI, 18 μl/min, 10 minutes, 10 mM aspirin + 100 μM AR-C66096, 3 μg/ml abciximab or 200 nM OS-1, control 457): 27.0 | thrombus formation in the second channel ([9]; Examples 1 and 2): suppressed | integrated values of the areas below 60 kPa, second channel ([9]; hirudin blood, 18 μl/min, 10 minutes, 10 mM aspirin + 100 μM AR-C66096, 3 μg/ml abciximab or 200 nM OS-1, control 372): 5.4 | integrated values of the pressures measured for 10 minutes, first channel [1, 10]: 394.8 | integrated values of the pressures measured for 10 minutes, second channel [5, 11]: 20.5 | areas under pressure, first channel [6, 12]: 258 | areas under pressure, second channel [7, 13]: 6 | thrombus formation in the second channel ([7]; Examples 9 and 10): more strongly suppressed thrombus formation in the second channel
